Test results published in paper PMC12435366, “Maleic anhydride derived diphosphines: adaptable chelators for receptor-targeted ^99mTc, ^64Cu and ^188Re radiotracers” (Chemical Science, 2025).

Tested on: DU145-PSMA+ prostate cancer xenografts
Format: in vivo, mice
Settings: for tumour delineation in SPECT/CT scans: male SCID/Beige mice bearing DU145-PSMA+ xenografts, SPECT 15 to 120 min post-injection; for clearance from blood pool (SPECT/CT): mouse, in vivo
Experimental: The biodistribution of [^99mTcO2(DP^An-PSMAt)2]^+ and [^99mTcO2(DP^MEP-PSMAt)2]^+ was studied using SPECT/CT imaging and ex vivo biodistribution methods. In these studies, [^99mTcO2(DP^An-PSMAt)2]^+ and [^99mTcO2(DP^MEP-PSMAt)2]^+ were used directly from kit-based formulations, without further purification, mimicking procedures used in clinical radiopharmacies and nuclear medicine departments. Mice were injected with [^99mTcO2(DP^An-PSMAt)2]^+ or [^99mTcO2(DP^MEP-PSMAt)2]^+ (4–5 MBq), containing 3 μg (2.6 nmol) of DP^An-PSMAt or 3.5 μg (2.6 nmol) of (DP^MEP-PSMAt) via the tail-vein, and culled 2 h post-injection, followed by dissection, organ/tissue weighing and counting.
SPECT/CT studies were undertaken in male SCID/Beige mice bearing DU145-PSMA+ prostate cancer xenografts administered [^99mTcO2(DP^An-PSMAt)2]^+ and [^99mTcO2(DP^MEP-PSMAt)2]^+. SPECT images were acquired from 15 to 120 min post-injection of radiotracer. […]
4.10 In vivo imaging and biodistribution (DU145-PSMA+ and LNCaP)
Preparation of tumour-bearing mice: All animal experiments were ethically reviewed by an Animal Welfare & Ethical Review Board at either King’s College London or Bart’s Cancer Institute and carried out in accordance with the Animals (Scientific Procedures) Act 1986 UK Home Office regulations governing animal experimentation. Subcutaneous prostate cancer xenografts were produced in SCID/beige mice (male, 7–12 weeks old) by injecting 4 × 10^6 DU145-PSMA+ or DU145 cells suspended in PBS (100 μL) on the right shoulder. Imaging and biodistribution studies were performed once a tumour had reached 5–10 mm in diameter (3–4 weeks after injection). Subcutaneous LNCaP prostate cancer xenografts were produced in athymic nude (Crl:NU(NCr)-Foxn1nu) mice (male, 6–7 weeks old) by injecting 5 × 10^6 LNCaP cells suspended in PBS:matrigel (1:1, 200 μL) on the right flank.
Biodistribution studies using 99mTc radiotracers were performed once a tumour had reached 150– 300 mm3 in volume (2–7 weeks after injection).
SCID/beige mice bearing DU145-PSMA+ prostate cancer tumour xenografts
SPECT/CT scanning and biodistribution studies: The 99mTc radiotracers (3.9–4.5 MBq, 3 mice per group, containing DPAn-PSMAt = 3.0 µg or DPMEP-PSMAt = 3.5 µg) were administered via tail vein injection under isoflurane anaesthesia. […]
in helical scanning mode). At 2 h post-injection, the animals were euthanized by cervical dislocation, organs/tissues harvested and weighed, and radioactivity counted using a gamma […]
ii. […] After scanning, the organs/tissues were harvested, weighed and radioactivity counted […]
Urine was collected and directly analysed by reverse-phase radio-HPLC (method 2). Data were analysed in GraphPad Prism 9 (version 9.1.1) and expressed as mean ± standard deviation (SD). […]

Row | Compound | tumour delineation in SPECT/CT scans | clearance from blood pool (SPECT/CT)
1 | COCCOc1ccc(P(/C(C(=O)O)=C(/C(=O)NCCOCCOCCOCCOCCC(=O)NCCCC[C@H](NC(=O)N[C@@H](CCC(=O)O)C(=O)O)C(=O)O)P(c2ccc(OCCOC)cc2)c2ccc(OCCOC)cc2)c2ccc(OCCOC)cc2)cc1 [[^99mTcO2(DP^MEP-PSMAt)2]^+, metal not drawn] | could be delineated | rapidly cleared from the blood pool via a renal pathway
2 | COc1ccc(P(/C(C(=O)O)=C(/C(=O)NCCOCCOCCOCCOCCC(=O)NCCCC[C@H](NC(=O)N[C@@H](CCC(=O)O)C(=O)O)C(=O)O)P(c2ccc(OC)cc2)c2ccc(OC)cc2)c2ccc(OC)cc2)cc1 [[^99mTcO2(DP^An-PSMAt)2]^+, metal not drawn] | could be delineated | rapidly cleared from the blood pool via a renal pathway
